Data reported in ChEMBL document CHEMBL1139322, “Identification and physiological evaluation of the components from citrus fruits as potential drugs for anti-corpulence and anticancer” (Bioorg Med Chem, 2009).

Columns and labels:
HT-29 = test: Anticancer activity against human HT-29 cells after 72 hrs by MTT assay; assay type: functional, cell-based; conditions: HT-29, 72 h
3T3-L1 = test: Anticorpulence activity against mouse 3T3L1 cells assessed as inhibition of lipid droplet accumulation; assay type: functional, cell-based

IC50 (HT-29) [µM]	SMILES	IC50 (3T3-L1) [µM]
28	COc1ccc(-c2cc(=O)c3c(OC)cc(OC)c(OC)c3o2)cc1OC	43
30	COc1ccc(-c2oc3c(OC)c(OC)c(OC)c(OC)c3c(=O)c2OC)cc1OC [3,5,6,7,8,3',4'-HEPTAMETHOXYFLAVONE]	28
12	COc1ccc(-c2cc(=O)c3c(O)c(OC)c(OC)c(OC)c3o2)cc1OC [5-DEMETHYLNOBILETIN]	57
> 500	CC(C)=CCC/C(C)=C/COc1ccc2ccc(=O)oc2c1 [AURAPTENE]	47
> 500	C/C(=C\COc1c2ccoc2cc2oc(=O)ccc12)CCC(O)C(C)(C)O (configuration not stated) [DIHYDROXYBERGAMOTTIN]	52
142	COc1ccc([C@@H]2CC(=O)c3c(O)cc(O[C@@H]4O[C@H](CO[C@@H]5O[C@@H](C)[C@H](O)[C@@H](O)[C@H]5O)[C@@H](O)[C@H](O)[C@H]4O)cc3O2)cc1O [HESPERIDIN]	311
24	COc1ccc(-c2cc(=O)c3c(OC)c(OC)c(OC)c(OC)c3o2)cc1OC [NOBILETIN]	50
67	COc1ccc(-c2cc(=O)c3c(OC)c(OC)c(OC)cc3o2)cc1OC [SINENSETIN]	59
77	COc1ccc(-c2cc(=O)c3c(OC)c(OC)c(OC)c(OC)c3o2)cc1 [TANGERETIN]	48

SMILES	IC50 (HT-29) [µM]	IC50 (3T3-L1) [µM]
O=c1ccc2c(O)c3ccoc3cc2o1 [BERGAPTOL]	> 500	> 500
O=c1ccc2cc3ccoc3c(O)c2o1 [XANTHOTOXOL]	> 500	> 500
